Laboratory results from the supplement of paper PMC10307832.

Assays:
Test in all cases: relative viability (nuclei count vs DMSO), 5 days (fraction); higher = more cells survive
[1] = compound: C1=CC2=NC=CN=C2C=C1/C=C/3\C(=O)NC(=O)S3 + CS(=O)(=O)CCNCc1ccc(-c2ccc3ncnc(Nc4ccc(OCc5cccc(F)c5)c(Cl)c4)c3c2)o1 [Lapatinib] (partner 2 µM)
Outline: (§1)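 Nuclei were stained with Hoechst during a one-step fixation (final 0.05% Triton X-100, 1% formaldehyde, 1 ug/ml Hoechst) carried out 5 days after dosing, then counted on 4× images. The cells, lung cancer lines in 1536-well plates, had been dosed by pin tool the day after seeding with one drug alone or a fixed anchor-drug dose plus five library-drug doses (not always all listed) in √10 steps. Relative viability is the nuclei count in treated wells divided by that in vehicle wells, and each value is the median of duplicate plates.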

BGJ398 + Alpelisib = compound: CCN1CCN(c2ccc(Nc3cc(N(C)C(=O)Nc4c(Cl)c(OC)cc(OC)c4Cl)ncn3)cc2)CC1 [BGJ398] + Cc1nc(NC(=O)N2CCC[C@H]2C(N)=O)sc1-c1ccnc(C(C)(C)C(F)(F)F)c1 [Alpelisib] (partner 2 µM)
Outline: as §1

BGJ398 + Tozasertib = compound: CCN1CCN(c2ccc(Nc3cc(N(C)C(=O)Nc4c(Cl)c(OC)cc(OC)c4Cl)ncn3)cc2)CC1 [BGJ398] + Cc1cc(Nc2cc(N3CCN(C)CC3)nc(Sc3ccc(NC(=O)C4CC4)cc3)n2)n[nH]1 [Tozasertib] (partner 0.1 µM)
Outline: as §1

BGJ398 + Olaparib = compound: CCN1CCN(c2ccc(Nc3cc(N(C)C(=O)Nc4c(Cl)c(OC)cc(OC)c4Cl)ncn3)cc2)CC1 [BGJ398] + O=C(c1cc(Cc2n[nH]c(=O)c3ccccc23)ccc1F)N1CCN(C(=O)C2CC2)CC1 [Olaparib] (partner 8 µM)
Outline: as §1

201T
relative viability ([1]; first compound 0.02 µM): 0.854
relative viability ([1]; first compound 0.06325 µM): 1.02
relative viability ([1]; first compound 0.2 µM): 0.979
relative viability ([1]; first compound 0.6325 µM): 0.972
relative viability ([1]; first compound 2 µM): 0.8
relative viability (BGJ398 + Alpelisib; first compound 0.01 µM): 1.08
relative viability (BGJ398 + Alpelisib; first compound 0.03162 µM): 1.01
relative viability (BGJ398 + Alpelisib; first compound 0.1 µM): 0.893
relative viability (BGJ398 + Alpelisib; first compound 0.3162 µM): 0.964
relative viability (BGJ398 + Alpelisib; first compound 1 µM): 0.994
relative viability (BGJ398 + Tozasertib; first compound 0.01 µM): 1.05
relative viability (BGJ398 + Tozasertib; first compound 0.03162 µM): 0.877
relative viability (BGJ398 + Tozasertib; first compound 0.1 µM): 0.965
relative viability (BGJ398 + Tozasertib; first compound 0.3162 µM): 0.914
relative viability (BGJ398 + Tozasertib; first compound 1 µM): 0.91
relative viability (BGJ398 + Olaparib; first compound 0.01 µM): 0.907
relative viability (BGJ398 + Olaparib; first compound 0.03162 µM): 0.791
relative viability (BGJ398 + Olaparib; first compound 0.1 µM): 0.858
relative viability (BGJ398 + Olaparib; first compound 0.3162 µM): 0.822
relative viability (BGJ398 + Olaparib; first compound 1 µM): 0.843

A549
relative viability ([1]; first compound 0.02 µM): 0.893
relative viability ([1]; first compound 0.06325 µM): 1.04
relative viability ([1]; first compound 0.2 µM): 1.04
relative viability ([1]; first compound 0.6325 µM): 0.9
relative viability ([1]; first compound 2 µM): 0.874
relative viability (BGJ398 + Alpelisib; first compound 0.01 µM): 0.782
relative viability (BGJ398 + Alpelisib; first compound 0.03162 µM): 0.864
relative viability (BGJ398 + Alpelisib; first compound 0.1 µM): 0.847
relative viability (BGJ398 + Alpelisib; first compound 0.3162 µM): 0.635
relative viability (BGJ398 + Alpelisib; first compound 1 µM): 0.872
relative viability (BGJ398 + Olaparib; first compound 0.01 µM): 0.341
relative viability (BGJ398 + Olaparib; first compound 0.03162 µM): 0.436
relative viability (BGJ398 + Olaparib; first compound 0.1 µM): 0.6
relative viability (BGJ398 + Olaparib; first compound 0.3162 µM): 0.231
relative viability (BGJ398 + Olaparib; first compound 1 µM): 0.231

A-427
relative viability ([1]; first compound 0.02 µM): 1.03
relative viability ([1]; first compound 0.06325 µM): 1.04
relative viability ([1]; first compound 0.2 µM): 1.07
relative viability ([1]; first compound 0.6325 µM): 0.994
relative viability ([1]; first compound 2 µM): 1.08
relative viability (BGJ398 + Alpelisib; first compound 0.01 µM): 1.08
relative viability (BGJ398 + Alpelisib; first compound 0.03162 µM): 1.07
relative viability (BGJ398 + Alpelisib; first compound 0.1 µM): 0.944
relative viability (BGJ398 + Alpelisib; first compound 0.3162 µM): 0.848
relative viability (BGJ398 + Alpelisib; first compound 1 µM): 0.662
relative viability (BGJ398 + Tozasertib; first compound 0.01 µM): 0.192
relative viability (BGJ398 + Tozasertib; first compound 0.03162 µM): 0.153
relative viability (BGJ398 + Tozasertib; first compound 0.1 µM): 0.162
relative viability (BGJ398 + Tozasertib; first compound 0.3162 µM): 0.179
relative viability (BGJ398 + Tozasertib; first compound 1 µM): 0.152
relative viability (BGJ398 + Olaparib; first compound 0.01 µM): 0.746
relative viability (BGJ398 + Olaparib; first compound 0.03162 µM): 0.713
relative viability (BGJ398 + Olaparib; first compound 0.1 µM): 0.761
relative viability (BGJ398 + Olaparib; first compound 0.3162 µM): 0.736
relative viability (BGJ398 + Olaparib; first compound 1 µM): 0.538

ABC-1
relative viability ([1]; first compound 0.02 µM): 1.06
relative viability ([1]; first compound 0.06325 µM): 0.754
relative viability ([1]; first compound 0.2 µM): 1.18
relative viability ([1]; first compound 0.6325 µM): 1
relative viability ([1]; first compound 2 µM): 1.02
relative viability (BGJ398 + Alpelisib; first compound 0.01 µM): 0.96
relative viability (BGJ398 + Alpelisib; first compound 0.03162 µM): 1.04
relative viability (BGJ398 + Alpelisib; first compound 0.1 µM): 1.03
relative viability (BGJ398 + Alpelisib; first compound 0.3162 µM): 1.15
relative viability (BGJ398 + Alpelisib; first compound 1 µM): 0.836
relative viability (BGJ398 + Tozasertib; first compound 0.01 µM): 0.186
relative viability (BGJ398 + Tozasertib; first compound 0.03162 µM): 0.168
relative viability (BGJ398 + Tozasertib; first compound 0.1 µM): 0.197
relative viability (BGJ398 + Tozasertib; first compound 0.3162 µM): 0.173
relative viability (BGJ398 + Tozasertib; first compound 1 µM): 0.198
relative viability (BGJ398 + Olaparib; first compound 0.01 µM): 0.864
relative viability (BGJ398 + Olaparib; first compound 0.03162 µM): 0.934
relative viability (BGJ398 + Olaparib; first compound 0.1 µM): 0.887
relative viability (BGJ398 + Olaparib; first compound 1 µM): 0.616

BEN
relative viability ([1]; first compound 0.02 µM): 0.624
relative viability ([1]; first compound 0.06325 µM): 0.754
relative viability ([1]; first compound 0.2 µM): 0.817
relative viability ([1]; first compound 0.6325 µM): 0.608
relative viability ([1]; first compound 2 µM): 0.505
relative viability (BGJ398 + Alpelisib; first compound 0.01 µM): 0.896
relative viability (BGJ398 + Alpelisib; first compound 0.03162 µM): 1.2
relative viability (BGJ398 + Alpelisib; first compound 0.1 µM): 0.993
relative viability (BGJ398 + Alpelisib; first compound 0.3162 µM): 0.923
relative viability (BGJ398 + Alpelisib; first compound 1 µM): 0.759
relative viability (BGJ398 + Tozasertib; first compound 0.01 µM): 0.587
relative viability (BGJ398 + Tozasertib; first compound 0.03162 µM): 0.488
relative viability (BGJ398 + Tozasertib; first compound 0.1 µM): 0.543
relative viability (BGJ398 + Tozasertib; first compound 0.3162 µM): 0.513
relative viability (BGJ398 + Tozasertib; first compound 1 µM): 0.527
relative viability (BGJ398 + Olaparib; first compound 0.01 µM): 1.09
relative viability (BGJ398 + Olaparib; first compound 0.03162 µM): 1.19
relative viability (BGJ398 + Olaparib; first compound 0.1 µM): 1.18
relative viability (BGJ398 + Olaparib; first compound 0.3162 µM): 0.991
relative viability (BGJ398 + Olaparib; first compound 1 µM): 0.861

CAL-12T
relative viability ([1]; first compound 0.02 µM): 0.512
relative viability ([1]; first compound 0.06325 µM): 0.708
relative viability ([1]; first compound 0.2 µM): 0.659
relative viability ([1]; first compound 0.6325 µM): 0.629
relative viability ([1]; first compound 2 µM): 0.751
relative viability (BGJ398 + Alpelisib; first compound 0.01 µM): 1.11
relative viability (BGJ398 + Alpelisib; first compound 0.03162 µM): 1.37
relative viability (BGJ398 + Alpelisib; first compound 0.1 µM): 1.25
relative viability (BGJ398 + Alpelisib; first compound 0.3162 µM): 1.36
relative viability (BGJ398 + Alpelisib; first compound 1 µM): 1.47
relative viability (BGJ398 + Tozasertib; first compound 0.01 µM): 0.285
relative viability (BGJ398 + Tozasertib; first compound 0.03162 µM): 0.324
relative viability (BGJ398 + Tozasertib; first compound 0.1 µM): 0.279
relative viability (BGJ398 + Tozasertib; first compound 0.3162 µM): 0.233
relative viability (BGJ398 + Tozasertib; first compound 1 µM): 0.243
relative viability (BGJ398 + Olaparib; first compound 0.01 µM): 0.688
relative viability (BGJ398 + Olaparib; first compound 0.03162 µM): 0.819
relative viability (BGJ398 + Olaparib; first compound 0.1 µM): 0.613
relative viability (BGJ398 + Olaparib; first compound 0.3162 µM): 0.773
relative viability (BGJ398 + Olaparib; first compound 1 µM): 0.666

COR-L23
relative viability ([1]; first compound 0.02 µM): 0.832
relative viability ([1]; first compound 0.06325 µM): 1.31
relative viability ([1]; first compound 0.2 µM): 0.921
relative viability ([1]; first compound 0.6325 µM): 0.771
relative viability ([1]; first compound 2 µM): 0.923
relative viability (BGJ398 + Alpelisib; first compound 0.01 µM): 0.755
relative viability (BGJ398 + Alpelisib; first compound 0.03162 µM): 0.872
relative viability (BGJ398 + Alpelisib; first compound 0.1 µM): 0.686
relative viability (BGJ398 + Alpelisib; first compound 0.3162 µM): 0.843
relative viability (BGJ398 + Alpelisib; first compound 1 µM): 0.824
relative viability (BGJ398 + Tozasertib; first compound 0.01 µM): 0.216
relative viability (BGJ398 + Tozasertib; first compound 0.03162 µM): 0.248
relative viability (BGJ398 + Tozasertib; first compound 0.1 µM): 0.205
relative viability (BGJ398 + Tozasertib; first compound 0.3162 µM): 0.188
relative viability (BGJ398 + Tozasertib; first compound 1 µM): 0.182
relative viability (BGJ398 + Olaparib; first compound 0.01 µM): 0.337
relative viability (BGJ398 + Olaparib; first compound 0.03162 µM): 0.337
relative viability (BGJ398 + Olaparib; first compound 0.1 µM): 0.308
relative viability (BGJ398 + Olaparib; first compound 0.3162 µM): 0.337
relative viability (BGJ398 + Olaparib; first compound 1 µM): 0.313

COR-L 105
relative viability ([1]; first compound 0.02 µM): 0.332
relative viability ([1]; first compound 0.06325 µM): 0.343
relative viability ([1]; first compound 0.2 µM): 0.368
relative viability ([1]; first compound 0.6325 µM): 0.335
relative viability ([1]; first compound 2 µM): 0.289
relative viability (BGJ398 + Alpelisib; first compound 0.01 µM): 0.919
relative viability (BGJ398 + Alpelisib; first compound 0.03162 µM): 0.956
relative viability (BGJ398 + Alpelisib; first compound 0.1 µM): 0.979
relative viability (BGJ398 + Alpelisib; first compound 0.3162 µM): 1.05
relative viability (BGJ398 + Alpelisib; first compound 1 µM): 1.06
relative viability (BGJ398 + Tozasertib; first compound 0.01 µM): 0.291
relative viability (BGJ398 + Tozasertib; first compound 0.03162 µM): 0.346
relative viability (BGJ398 + Tozasertib; first compound 0.1 µM): 0.339
relative viability (BGJ398 + Tozasertib; first compound 0.3162 µM): 0.418
relative viability (BGJ398 + Tozasertib; first compound 1 µM): 0.324
relative viability (BGJ398 + Olaparib; first compound 0.01 µM): 0.627
relative viability (BGJ398 + Olaparib; first compound 0.03162 µM): 0.647
relative viability (BGJ398 + Olaparib; first compound 0.1 µM): 0.687
relative viability (BGJ398 + Olaparib; first compound 0.3162 µM): 0.733
relative viability (BGJ398 + Olaparib; first compound 1 µM): 0.639
